Test results taken from US7915300B2, “Cysteine protease inhibitors” (Medivir AB, priority 2004, dated 2011).
Like-named read-outs stand apart in the source and are kept apart here.

Experiments:
[1] = target: T1, cathepsin K (Homo sapiens, UniProt P43235); settings: value from WO 02057270; read-out: Ki indicated in WO 02057270; cited from earlier work
T1 sequence (P43235 115-329): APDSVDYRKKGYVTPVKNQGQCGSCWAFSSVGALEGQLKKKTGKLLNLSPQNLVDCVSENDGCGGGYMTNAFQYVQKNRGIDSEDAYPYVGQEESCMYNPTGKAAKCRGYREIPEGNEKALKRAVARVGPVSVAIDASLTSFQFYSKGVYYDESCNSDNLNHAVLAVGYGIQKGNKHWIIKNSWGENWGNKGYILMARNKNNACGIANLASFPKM

[2] = target: T1, cathepsin K; test: Cathepsin K proteolytic activity, inhibition studies (Ki) with fluorogenic peptide substrate; type: biochemical; design: made in house; host or cells: not fixed: E coli, Pichia or Baculovirus systems named as options; settings: side by side trials in the same assay system; read-out: Cathepsin K K^1
Method: Convenient assays for cathepsin K are carried out using human recombinant enzyme, such as that described in PDB.
The recombinant cathepsin K can be expressed in a variety of commercially available expression systems including E coli, Pichia and Baculovirus systems. The purified enzyme is activated by removal of the prosequence by conventional methods.
Standard assay conditions for the determination of kinetic constants used a fluorogenic peptide substrate, typically H-D-Ala-Leu-Lys-AMC, and were determined in either 100 mM Mes/Tris, pH 7.0 containing 1 mM EDTA and 10 mM 2-mercaptoethanol or 100 mMNa phosphate, imM EDTA, 0.1% PEG4000 pH 6.5 or 100 mM Na acetate, pH 5.5 containing 5 mM EDTA and 20 mM cysteine, in each case optionally with […] as stabiliser. The enzyme concentration used was 5 nM. The stock substrate solution was prepared at 10 mM in DMSO. Screens were carried out at a fixed substrate concentration of 60 μM and detailed kinetic studies with doubling dilutions of substrate from 250 μM. The total DMSO concentration in the assay was kept below 3%. […] Product fluorescence (excitation at 390 nm, emission at 460 nm) was monitored with a Labsystems Fluoroskan Ascent fluorescent plate reader. […]
Potential inhibitors are screened using the above assay with variable concentrations of test compound. […] Ki values were calculated according to equation 1 […]

CC(C)CC(NC(=O)c1ccc(Oc2ccccc2)cc1)C(=O)N1CC[C@H]2OCC(=O)[C@H]21 (stereo partly drawn)
Ki [1]: 100 nM
Ki [2]: 66 nM

CC(C)CC(NC(=O)c1ccc(Oc2ccccc2)cc1)C(=O)N1C[C@H](F)[C@H]2OCC(=O)[C@H]21 (stereo partly drawn)
Ki [2]: 5.3 nM
